Measurements taken from patent publication US20230404929A1, “Intradermal Delivery of Extracellular Vesicle-Encapsulated Curcumin Using Dissolvable Microneedle Arrays” (priority 2020, published 2023).

Tests used:
[1] = in vitro stability of curcumin in phosphate-buffered saline at 37° C.; format: physicochemical
[2] = tested on: psoriasis-like inflammation; experiment: imiquimod psoriasis-like skin inflammation in mice; format: in vivo; details: skin cross-section
Text: The efficacy of dMNA-delivered CA-EVs in simultaneously blocking and reversing inflammation was studied. The treatments included topical, intradermal, and dMNA application of CA-EVs, naïve EVs, and naked curcumin.

Structure (SMILES): COc1cc(/C=C/C(=O)CC(=O)/C=C/c2ccc(O)c(OC)c2)ccc1O [naked curcumin, curcumin]
- curcumin remaining stable ([1]; 3 hours): 5%
- degradation of curcumin over time ([1]; seven-day study): degraded entirely within one day
- therapeutic effect on imiquimod-induced skin inflammation [2]: negligible effect
